Test results taken from patent US20220144838A1, “Compounds as Inhibitors of Macrophage Migration Inhibitory Factor” (NANJING IMMUNOPHAGE BIOTECH CO., LTD., priority 2019, published 2022).

biological target: T1, MIF (Homo sapiens, UniProt P14174); test: MIF tautomerase assay using pHPP as substrate; type: biochemical; conditions: FIGS. 1-5; mean of multiple test results; read-out: pIC50 MIF tautomerase activity (converted)
T1 sequence (P14174 2-115 limits assumed): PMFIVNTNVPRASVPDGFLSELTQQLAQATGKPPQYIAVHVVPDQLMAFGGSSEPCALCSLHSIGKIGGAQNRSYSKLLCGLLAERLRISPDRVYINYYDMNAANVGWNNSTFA
In short: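 Mean pIC50 derived from initial rates (absorbance progress-curve slopes) of MIF-catalyzed ketonic-to-enolic pHPP conversion, read as enol–borate complex. Reactions contained 1.5 mM substrate and 3 nM enzyme (final), 200 mM boric acid stock buffer, BSA and CHAPS, pH 6.0.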

IC50 [nM] | SMILES
≤ 100 | O=C(O)Cn1cnc2c(-n3ncc4cc(CO)ccc43)nc(N3CCN(c4ccc(O)cc4)CC3)nc21 [Example 109, 2-(6-(5-(hydroxymethyl)-1H-indazol-1-yl)-2-(4-(4-hydroxyphenyl)piperazin-1-yl)-9H-purin-9-yl)acetic acid]

same assay, conditions: inhibition of the MIF enzyme in vitro; mean of multiple test results; read-out: Tautomerase Inhibition pIC50 (converted)

SMILES | IC50 [nM]
Nc1nc(N2CCC(O)(c3ccccc3)CC2)nc2c1ncn2-c1ccncc1 [Example 202, 1-(6-amino-9-(pyridin-4-yl)-9H-purin-2-yl)-4-phenylpiperidin-4-ol] | > 10000
CC(C(=O)O)n1cnc2c(-n3ncc4ccccc43)nc(N3CCN(c4ccc(O)cc4)CC3)nc21 (centres unmarked) [Example 124, 2-(2-(4-(4-hydroxyphenyl)piperazin-1-yl)-6-(1H-indazol-1-yl)-9H-purin-9-yl)propanoic acid] | 10 to 97.7
Cc1cc(-n2cnc3c(C)nc(N4CCC(O)(c5ccc(O)cc5)CC4)nc32)ccn1 [Example 203, 4-(4-hydroxyphenyl)-1-(6-methyl-9-(2-methylpyridin-4-yl)-9H-purin-2-yl)piperidin-4-ol] | > 10000
O=C(O)Cn1cnc2c(-n3nnc4cccnc43)nc(N3CCN(c4ccc(O)cc4)CC3)nc21 [Example 120, 2-(6-(3H-[1,2,3]triazolo[4,5-b]pyridin-3-yl)-2-(4-(4-hydroxyphenyl)piperazin-1-yl)-9H-purin-9-yl)acetic acid] | 10 to 97.7
OCC1CCN(c2nc(N3CCN(c4ccc(O)cc4)CC3)nc3c2ncn3-c2cccnc2)C1 (centres unmarked) [Example 94, 4-(4-(6-(3-(hydroxymethyl)pyrrolidin-1-yl)-9-(pyridin-3-yl)-9H-purin-2-yl)piperazin-1-yl)phenol] | 100 to 977
Nc1nc(N2CCN(c3ccc(O)cc3)CC2)nc2c1ncn2-c1cccc(F)c1 [Example 72, 4-(4-(6-amino-9-(3-fluorophenyl)-9H-purin-2-yl)piperazin-1-yl)phenol] | 1000 to 9770
CCOC(=O)Cn1cnc2c(-n3ncc4ccccc43)nc(N3CCN(c4ccc(O)cc4)CC3)nc21 [Example 44, ethyl 2-(2-(4-(4-hydroxyphenyl)piperazin-1-yl)-6-(1H-indazol-1-yl)-9H-purin-9-yl)acetate] | 100 to 977
O=C(O)Cn1cnc2c(-n3ncc4cc(CO)ccc43)nc(N3CCN(c4ccc(O)cc4)CC3)nc21 [Example 109, 2-(6-(5-(hydroxymethyl)-1H-indazol-1-yl)-2-(4-(4-hydroxyphenyl)piperazin-1-yl)-9H-purin-9-yl)acetic acid] | 10 to 97.7
COC(=O)Cn1cnc2c(-n3ncc4ccccc43)nc(N3CCN(c4ccc(O)cc4)CC3)nc21 [Example 131, methyl 2-(2-(4-(4-hydroxyphenyl)piperazin-1-yl)-6-(1H-indazol-1-yl)-9H-purin-9-yl)acetate] | 100 to 977
CC(C)(C(=O)O)n1cnc2c(-n3ncc4ccccc43)nc(N3CCN(c4ccc(O)cc4)CC3)nc21 [Example 128, 2-(2-(4-(4-hydroxyphenyl)piperazin-1-yl)-6-(1H-indazol-1-yl)-9H-purin-9-yl)-2-methylpropanoic acid] | 10 to 97.7
CCOC(=O)Cn1cnc2c(-n3cnc4ccccc43)nc(N3CCN(c4ccc(O)cc4)CC3)nc21 [Example 40, ethyl 2-(6-(1H-benzo[d]imidazol-1-yl)-2-(4-(4-hydroxyphenyl)piperazin-1-yl)-9H-purin-9-yl)acetate] | 1000 to 9770
Nc1nc(N2CCN(c3ccc(O)cc3)CC2)nc2c(-c3ccncc3)c[nH]c12 [Example 226, 4-(4-(4-amino-7-(pyridin-4-yl)-5H-pyrrolo[3,2-d]pyrimidin-2-yl)piperazin-1-yl)phenol] | > 10000
Cc1nc(N2CCN(c3ccc(O)cc3)CC2)nc2c1ncn2-c1cccnc1 [Example 59, 4-(4-(6-methyl-9-(pyridin-3-yl)-9H-purin-2-yl)piperazin-1-yl)phenol] | 100 to 977
Nc1nc(N2CCN(c3ccc(CO)cn3)CC2)nc2c1ncn2-c1ccncc1 [Example 196, (6-(4-(6-amino-9-(pyridin-4-yl)-9H-purin-2-yl)piperazin-1-yl)pyridin-3-yl)methanol] | > 10000
O=C(O)Cn1cnc2c(-n3nc(C(=O)O)c4ccccc43)nc(N3CCN(c4ccc(O)cc4)CC3)nc21 [Example 10, 1-(9-(carboxymethyl)-2-(4-(4-hydroxyphenyl)piperazin-1-yl)-9H-purin-6-yl)-1H-indazole-3-carboxylic acid] | 10 to 97.7
O=C(O)Cn1cnc2c(-n3ncc4ccccc43)nc(N3CC(O)(c4ccccc4)C3)nc21 [Example 221, 2-(2-(3-hydroxy-3-phenylazetidin-1-yl)-6-(1H-indazol-1-yl)-9H-purin-9-yl)acetic acid] | 100 to 977

Results, then the compound that gave them:

IC50 [nM] | SMILES
> 10000 | Nc1nc(N2CCCN(c3ccccc3)CC2)nc2c1ncn2-c1ccncc1 [Example 227, 2-(4-phenyl-1,4-diazepan-1-yl)-9-(pyridin-4-yl)-9H-purin-6-amine]
> 10000 | Nc1nc(N2CCN(c3ccc(O)cc3)CC2)nc2c1ncn2C1CCCCO1 (centres unmarked) [Example 187, 4-(4-(6-amino-9-(tetrahydro-2H-pyran-2-yl)-9H-purin-2-yl)piperazin-1-yl)phenol]
> 10000 | Cc1nc(N2CCC(O)(c3ccc(O)cc3)CC2)nc2c1ncn2CC(=O)O [Example 215, 2-(2-(4-hydroxy-4-(4-hydroxyphenyl)piperidin-1-yl)-6-methyl-9H-purin-9-yl)acetic acid]
> 10000 | Nc1ccc(N2CCN(c3nc(N)c4ncn(-c5ccncc5)c4n3)CC2)nc1 [Example 190, 2-(4-(5-aminopyridin-2-yl)piperazin-1-yl)-9-(pyridin-4-yl)-9H-purin-6-amine]
100 to 977 | COC(=O)CNc1nc(N2CCN(c3ccc(O)cc3)CC2)nc2c1ncn2-c1ccncc1 [Example 162, Methyl (2-(4-(4-hydroxyphenyl)piperazin-1-yl)-9-(pyridin-4-yl)-9H-purin-6-yl)glycinate]
100 to 977 | CC(=O)NCCn1cnc2c(-n3ncc4ccccc43)nc(N3CCN(c4ccc(O)cc4)CC3)nc21 [Example 138, N-(2-(2-(4-(4-hydroxyphenyl)piperazin-1-yl)-6-(1H-indazol-1-yl)-9H-purin-9-yl)ethyl)acetamide]
100 to 977 | NC(=O)Cn1cnc2c(-n3ncc4ccccc43)nc(N3CCN(c4ccc(O)cc4)CC3)nc21 [Example 47, 2-(2-(4-(4-hydroxyphenyl)piperazin-1-yl)-6-(1H-indazol-1-yl)-9H-purin-9-yl)acetamide]
10 to 97.7 | OCCn1cnc2c(-n3nc(CO)c4ccccc43)nc(N3CCN(c4ccc(O)cc4)CC3)nc21 [Example 152, 4-(4-(9-(2-hydroxyethyl)-6-(3-(hydroxymethyl)-1H-indazol-1-yl)-9H-purin-2-yl)piperazin-1-yl)phenol]
1000 to 9770 | O=C1Cc2cccnc2N1c1nc(N2CCN(c3ccc(O)cc3)CC2)nc2c1ncn2CCO [Example 58, 1-(9-(2-hydroxyethyl)-2-(4-(4-hydroxyphenyl)piperazin-1-yl)-9H-purin-6-yl)-1H-pyrrolo[2,3-b]pyridin-2(3H)-one]
100 to 977 | O=C(O)Cn1cnc2c(-c3ccnc4[nH]ccc34)nc(N3CCN(c4ccc(O)cc4)CC3)nc21 [Example 35, 2-(2-(4-(4-hydroxyphenyl)piperazin-1-yl)-6-(1H-pyrrolo[2,3-b]pyridin-4-yl)-9H-purin-9-yl)acetic acid]
10 to 97.7 | Nc1nc(N2CCC(c3ccc(O)cc3)CC2)nc2c1ncn2-c1ccncc1 [Example 157, 4-(1-(6-amino-9-(pyridin-4-yl)-9H-purin-2-yl)piperidin-4-yl)phenol]
100 to 977 | CN(CC(=O)O)c1nc(N2CCC(O)(c3ccc(O)cc3)CC2)nc2c1ncn2-c1ccncc1 [Example 205, N-(2-(4-hydroxy-4-(4-hydroxyphenyl)piperidin-1-yl)-9-(pyridin-4-yl)-9H-purin-6-yl)-N-methylglycine]
> 10000 | Cc1nc(N2CCC(O)(c3ccc(O)cc3)CC2)nc2c1ncn2-c1ccc(C#N)cc1 [Example 185, 4-(2-(4-hydroxy-4-(4-hydroxyphenyl)piperidin-1-yl)-6-methyl-9H-purin-9-yl)benzonitrile]
10 to 97.7 | O=C(O)C1CCCN1c1nc(N2CCN(c3ccc(O)cc3)CC2)nc2c1ncn2-c1ccncc1 (centres unmarked) [Example 167, (2-(4-(4-hydroxyphenyl)piperazin-1-yl)-9-(pyridin-4-yl)-9H-purin-6-yl)proline]
> 10000 | Nc1nc(N2CC(O)(c3ccc(CO)cc3)C2)nc2c1ncn2-c1ccncc1 [Example 214, 1-(6-amino-9-(pyridin-4-yl)-9H-purin-2-yl)-3-(4-(hydroxymethyl)phenyl) azetidin-3-ol]
1000 to 9770 | O=C(O)Cn1cnc2c(-c3cccc4[nH]ccc34)nc(N3CCN(c4ccc(O)cc4)CC3)nc21 [Example 118, 2-(2-(4-(4-hydroxyphenyl)piperazin-1-yl)-6-(1H-indol-4-yl)-9H-purin-9-yl)acetic acid]
10 to 97.7 | O=C(O)Cn1cnc2c(-n3nnc4ccc(Cl)cc43)nc(N3CCN(c4ccc(O)cc4)CC3)nc21 [Example 18, 2-(6-(6-chloro-1H-benzo[d][1,2,3]triazol-1-yl)-2-(4-(4-hydroxyphenyl)piperazin-1-yl)-9H-purin-9-yl)acetic acid]
1000 to 9770 | Cc1ccncc1-n1cnc2c(N)nc(N3CCN(c4ccc(O)cc4)CC3)nc21 [Example 67, 4-(4-(6-amino-9-(4-methylpyridin-3-yl)-9H-purin-2-yl)piperazin-1-yl)phenol]
100 to 977 | O=C(O)Cn1cnc2c(-n3ncc4c(Cl)cccc43)nc(N3CCN(c4ccc(O)cc4)CC3)nc21 [Example 106, 2-(6-(4-chloro-1H-indazol-1-yl)-2-(4-(4-hydroxyphenyl)piperazin-1-yl)-9H-purin-9-yl)acetic acid]
1000 to 9770 | CN1CCN(c2nc(N3CCN(c4ccc(O)cc4)CC3)nc3c2ncn3-c2ccncc2)CC1 [Example 179, 4-(4-(6-(4-methylpiperazin-1-yl)-9-(pyridin-4-yl)-9H-purin-2-yl)piperazin-1-yl)phenol]
> 10000 | CN(c1ccncc1)c1nc(N2CCC(O)(c3ccc(O)cc3)CC2)nc2[nH]cnc12 [Example 220, 4-(4-hydroxyphenyl)-1-(6-(methyl(pyridin-4-yl)amino)-9H-purin-2-yl)piperidin-4-ol]
